Patent US11725000B2, “Apoptosis inhibitors” (National Institute of Biological Sciences, Beijing, priority 2017, dated 2023)

System: U2OS_Bim cells
Assay: Apoptosis inhibition assay (Bim-induced apoptosis, cell viability by ATP level)
Format: cell-based
Conditions: not given
Method in brief: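 Apoptosis was triggered by doxycycline (0.1 μg/mL) induction of Bim, one hour after compound addition to U2OS_Bim cells. Survival was measured after 24 h from cellular ATP (CellTiter-Glo), relative to DMSO, with zVAD at 20 μM as rescue control. Data are duplicate means, some estimated from preliminary results.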

Row | Structure (SMILES) | EC50
1 | CS(=O)(=O)c1nc(-c2cccc(OCc3ccccc3)c2)cc(C(F)(F)F)n1 [Compound 75, 4-(3-(benzyloxy)phenyl)-2-(methylsulfonyl)-6-(trifluoromethyl)pyrimidine] | 1 to 20 µM

Same assay, conditions: U2OS_Bim cells; estimated (*Est.) / preliminary results; numbering of Tables 4a/4b; read-out: EC50

Row | Structure (SMILES) | EC50
2 | Cc1cc(-c2cc(F)c(=O)n(Cc3ccc4nnn(C)c4c3)c2)nc(S(=O)(=O)CCCC(=O)NC23CC4CC(CC(C4)C2)C3)n1 [Compound 365] | 0.001 to 1 µM
3 | Cc1cc(-c2cc(F)c(=O)n(Cc3ccc4c(c3)OCO4)c2)nc(S(=O)(=O)CCC(OCc2ccccc2F)c2ccc3ncn(C)c3c2)n1 (stereo not shown) [Compound 393] | 0.001 to 1 µM
4 | Cc1cc(-c2cc(F)c(=O)n(Cc3ccc4c(c3)OCO4)c2)nc(S(=O)(=O)CCC(OCc2ccccc2F)c2ccncc2)n1 (stereo not shown) [Compound 385] | 0.001 to 1 µM
5 | Cc1cc(-c2cc(F)c(=O)n(Cc3ccc4c(c3)OCO4)c2)nc(S(=O)(=O)CCC(OCC2CN(C)C2)c2ccccc2)n1 (stereo not shown) [Compound 416] | 0.001 to 1 µM
6 | Cc1cc(-c2cc(F)c(=O)n(Cc3ccc4c(c3)NCCN4)c2)nc(S(=O)(=O)CCC(OCc2ccccc2F)c2ccccc2)n1 (stereo not shown) [Compound 346] | 0.001 to 1 µM
7 | Cc1cc(-c2cc(F)c(=O)n(Cc3cccc(N(C)C)c3)c2)nc(S(=O)(=O)CCC(OCc2ccccc2F)c2ccccc2)n1 (stereo not shown) [Compound 339] | 0.001 to 1 µM
8 | Cc1cc(-c2cc(F)c(=O)n(Cc3ccc4c(c3)OCO4)c2)nc(S(=O)(=O)CCCC(=O)N(c2ccccc2)C2CCC2)n1 [Compound 370] | 0.001 to 1 µM
9 | Cc1cc(-c2cc(F)c(=O)n(Cc3ccc4c(c3)OCO4)c2)nc(S(=O)(=O)CCCC(=O)NC23CC4CC(CC(C4)C2)C3)n1 [Compound 364] | 0.001 to 1 µM
10 | Cc1cc(-c2cc(F)c(=O)n(Cc3ccc4c(c3)OCO4)c2)nc(S(=O)(=O)CCCn2c(=O)oc3ccccc32)n1 [Compound 366] | 0.001 to 1 µM

Same assay, conditions: U2OS_Bim cells; estimated based on preliminary results; numbering of Tables 4a/4b; read-out: EC50

Row | Structure (SMILES) | EC50
11 | COc1cn(Cn2cc(-c3cc(C(F)(F)F)nc(S(C)(=O)=O)n3)ccc2=O)cc1OC [Compound 258] | < 10 µM
12 | CS(=O)(=O)c1nc(-c2ccc(=O)n(Cc3ccc4c(c3)NCCN4)c2)cc(C(F)(F)F)n1 [Compound 234] | < 10 µM
13 | COc1ccc(Cn2cc(-c3cc(C(F)(F)F)nc([S+]([O-])Cn4ncnn4)n3)ccc2=O)cc1OC (stereo not shown) [Compound 193] | < 10 µM
14 | CCc1ccc(Cn2cc(-c3cc(C(F)(F)F)nc([S+](C)[O-])n3)ccc2=O)cc1OC (stereo not shown) [Compound 265] | < 10 µM
15 | COc1ccc(Cn2cc(-c3cc(C(F)(F)F)nc(S(=O)(=O)Cc4ccccn4)n3)ccc2=O)cc1OC [Compound 189] | < 10 µM
16 | CNc1ccc(Cn2cc(-c3cc(C(F)(F)F)nc(S(C)(=O)=O)n3)ccc2=O)cc1NC [Compound 232] | < 10 µM
17 | CCc1cc(Cn2cc(-c3cc(C(F)(F)F)nc(S(C)(=O)=O)n3)ccc2=O)ccc1OC [Compound 262] | < 10 µM
18 | COc1ccc(Cn2cc(-c3cc(-n4cccc4)nc([S+](C)[O-])n3)ccc2=O)cc1OC (stereo not shown) [Compound 218] | < 10 µM
19 | COc1ccc(Cn2cc(-c3cc(C(F)(F)F)nc(S(=O)(=O)CN(C)C)n3)ccc2=O)cc1OC [Compound 199] | < 10 µM
20 | CS(=O)(=O)c1nc(-c2ccc(=O)n(CC3=Cc4ccccc4C3)c2)cc(C(F)(F)F)n1 [Compound 254] | < 10 µM
21 | CS(=O)(=O)c1nc(-c2ccc(=O)n(Cc3ccc4[nH]cnc4c3)c2)cc(C(F)(F)F)n1 [Compound 228] | < 10 µM
22 | C[S+]([O-])c1nc(-c2ccc(=O)n(Cc3ccc4c(c3)OCO4)c2)cc(C(F)(F)F)n1 (stereo not shown) [Compound 223] | < 10 µM

Same assay, conditions: U2OS_Bim cells; means of duplicates; numbering of Tables 4a/4b; read-out: EC50

Row | Structure (SMILES) | EC50
23 | CS(=O)(=O)c1nc(-c2ccc(=O)n(Cc3cccc4ccccc34)c2)cc(C(F)(F)F)n1 [Compound 133, 5-(2-(methylsulfonyl)-6-(trifluoromethyl)pyrimidin-4-yl)-1-(naphthalen-1-ylmethyl)pyridin-2 (1H)-one] | 1 to 10 µM
24 | CCOc1cccc(Cn2cc(-c3cc(C(F)(F)F)nc(S(C)(=O)=O)n3)ccc2=O)c1 [Compound 112, 1-(3-ethoxybenzyl)-5-(2-(methylsulfonyl)-6-(trifluoromethyl)pyrimidin-4-yl)pyridin-2 (1H)-one] | 0.001 to 1 µM
25 | COC(=O)c1ccccc1-c1cc(C(F)(F)F)nc(S(C)(=O)=O)n1 [Compound 58, methyl 2-(2-(methylsulfonyl)-6-(trifluoromethyl)pyrimidin-4-yl)benzoate] | < 100 µM
26 | COCCOCCS(=O)(=O)c1nc(-c2ccc(=O)n(Cc3ccc(OC)c(OC)c3)c2)cc(C(F)(F)F)n1 [Compound 145] | 0.001 to 1 µM
27 | COc1ccc(Cn2cc(-c3cc(C)nc([S+]([O-])CCC(C)OCc4ccccc4F)n3)cc(F)c2=O)cc1F (stereo not shown) [Compound 304, 3-fluoro-1-(3-fluoro-4-methoxybenzyl)-5-(2-((3-((2-fluorobenzyl)oxy)butyl)sulfinyl)-6-methylpyrimidin-4-yl)pyridin-2 (1H)-one] | < 100 µM
28 | COc1cccc([S+]([O-])c2nc(-c3ccc(=O)n(Cc4ccc(OC)c(OC)c4)c3)cc(C(F)F)n2)c1 (stereo not shown) [Compound 175, 5-(6-(difluoromethyl)-2-((3-methoxyphenyl)sulfinyl)pyrimidin-4-yl)-1-(3,4-dimethoxybenzyl)pyridin-2 (1H)-one] | 0.001 to 1 µM
29 | COc1ccc(Cn2cc(-c3cc(C(F)F)nc([S+](C)[O-])n3)ccc2=O)cc1C(F)(F)F (stereo not shown) [Compound 170, 5-(6-(difluoromethyl)-2-(methylsulfinyl)pyrimidin-4-yl)-1-(4-methoxy-3-(trifluoromethyl)benzyl)pyridin-2 (1H)-one] | 0.001 to 1 µM
30 | CS(=O)(=O)c1nc(-c2cccs2)cc(N2CCCC2=O)n1 [Compound 38, 1-(2-(methylsulfonyl)-6-(thiophen-2-yl)pyrimidin-4-yl)pyrrolidin-2-one] | < 100 µM
31 | COc1ccc(Cn2cc(-c3cc(C(F)F)nc(S(=O)(=O)CCCC(=O)NC45CC6CC(CC(C6)C4)C5)n3)ccc2=O)cc1OC [Compound 288, N-((3s,5s,7s)-adamantan-1-yl)-4-((4-(difluoromethyl)-6-(1-(3,4-dimethoxybenzyl)-6-oxo-1,6-dihydropyridin-3-yl)pyrimidin-2-yl)sulfonyl)butanamide] | 0.001 to 1 µM
32 | CNC(=O)c1ccc(-c2cc(C(F)(F)F)nc(S(C)(=O)=O)n2)cc1 [Compound 68, N-methyl-4-(2-(methylsulfonyl)-6-(trifluoromethyl)pyrimidin-4-yl)benzamide] | 1 to 20 µM
33 | COc1ccc(Cn2cc(-c3cc(-c4ccccc4F)nc(S(=O)(=O)CCC(OCc4ccccc4)c4ccccc4)n3)ccc2=O)cc1OC (stereo not shown) [Compound 298, 5-(2-((3-(benzyloxy)-3-phenylpropyl)sulfonyl)-6-(2-fluorophenyl)pyrimidin-4-yl)-1-(3,4-dimethoxybenzyl)pyridin-2 (1H)-one] | < 100 µM
34 | C#Cc1ccc(-c2cc(C(F)(F)F)nc(S(C)(=O)=O)n2)cc1 [Compound 49, 4-(4-ethynylphenyl)-2-(methylsulfonyl)-6-(trifluoromethyl)pyrimidine] | < 100 µM
35 | COc1ccc(Cn2cc(-c3cc(C(F)F)nc(S(=O)(=O)c4cccc(NC(C)=O)c4)n3)ccc2=O)cc1OC [Compound 182, N-(3-((4-(difluoromethyl)-6-(1-(3,4-dimethoxybenzyl)-6-oxo-1,6-dihydropyridin-3-yl)pyrimidin-2-yl)sulfonyl)phenyl)acetamide] | 0.001 to 1 µM
36 | C[S+]([O-])c1nc(-c2ccn(Cc3cccc(Cl)c3)c2)cc(C(F)(F)F)n1 (stereo not shown) [Compound 94, 4-(1-(3-chlorobenzyl)-1H-pyrrol-3-yl)-2-(methylsulfinyl)-6-(trifluoromethyl)pyrimidine] | < 100 µM
37 | COc1ccc(Cn2cc(-c3cc(C(F)F)nc(S(=O)(=O)CCCS(=O)(=O)c4nc(-c5ccc(=O)n(Cc6ccc(OC)c(OC)c6)c5)cc(C(F)F)n4)n3)ccc2=O)cc1OC [Compound 186, 5,5′-(2,2′-(propane-1,3-diyldisulfonyl)bis(6-(difluoromethyl)pyrimidine-4,2-diyl))bis(1-(3,4-dimethoxybenzyl)pyridin-2 (1H)-one)] | 0.001 to 1 µM
38 | COc1ccc(Cn2cc(-c3cc(-c4ccccc4F)nc(S(C)(=O)=O)n3)ccc2=O)cc1OC [Compound 296, 1-(3,4-dimethoxybenzyl)-5-(6-(2-fluorophenyl)-2-(methylsulfonyl)pyrimidin-4-yl)pyridin-2 (1H)-one] | 1 to 10 µM
39 | CS(=O)(=O)c1nc(-c2ccc(=O)n(CCN=[N+]=[N-])c2)cc(C(F)(F)F)n1 [Compound 102, 1-(2-azidoethyl)-5-(2-(methylsulfonyl)-6-(trifluoromethyl)pyrimidin-4-yl) pyridin-2 (1H)-one] | 1 to 10 µM
40 | CS(=O)(=O)c1nc(-c2ccccc2C#N)cc(C(F)(F)F)n1 [Compound 55, 2-(2-(methylsulfonyl)-6-(trifluoromethyl)pyrimidin-4-yl)benzonitrile] | 1 to 20 µM
41 | COc1ccc(Cn2cc(-c3cc(C(F)F)nc(S(=O)(=O)CCC(OCc4ccc(F)cc4F)c4ccccc4)n3)ccc2=O)cc1F (stereo not shown) [Compound 286, 5-(2-(3-(2,4-difluorobenzyloxy)-3-phenylpropylsulfonyl)-6-(difluoromethyl)pyrimidin-4-yl)-1-(3-fluoro-4-methoxybenzyl)pyridin-2 (1H)-one] | 0.001 to 1 µM
42 | CS(=O)(=O)c1nc(-c2ccc(=O)n(Cc3ccc(-c4ccccc4)cc3)c2)cc(C(F)(F)F)n1 [Compound 131, 1-([1,1′-biphenyl]-4-ylmethyl)-5-(2-(methylsulfonyl)-6-(trifluoromethyl)pyrimidin-4-yl)pyridin-2 (1H)-one] | 0.001 to 1 µM
43 | Cc1cc(-c2cc(F)c(=O)n(Cc3ccc4nsnc4c3)c2)nc(S(=O)(=O)CCC(OCc2ccccc2F)c2ccccc2)n1 (stereo not shown) [Compound 319, 1-(benzo[c][1,2,5]thiadiazol-5-ylmethyl)-3-fluoro-5-(2-(3-(2-fluorobenzyloxy)-3-phenylpropylsulfonyl)-6-methylpyrimidin-4-yl)pyridin-2 (1H)-one] | 0.001 to 1 µM
